# Measured values reported in patent US6200989A, “2-alkylidene hydroxycumaranone derivatives” (Hoffmann-La Roche Inc., priority 1997, dated 2001).
# Target: uPAR (Homo sapiens, UniProt Q03405)
# Experiment: ELISA test: inhibition of human urokinase (uPA) binding to its specific receptor uPAR
# Settings: test substance preincubated 30 min at room temperature
# Description: Compounds of the invention were tested (ELISA test) as inhibitors of human urokinase (uPA) binding to its specific receptor uPAR mAk (BIO-R4), according to the procedure described in Biol. Chem. Hoppe-Seyler, 376, 587-94 (1995) by Rettenberger et al. The assays are performed in Microtiterplates (96 wells). The following solutions are used:
# washing buffer PBS-buffer (without Mg^2+ and Ca^2+)+0.05% Tween 20;
# incubation buffer (IP): 1% skimmed milk powder in PBS-buffer (without Mg^2+ and Ca^2+);
# BIO-R4 solution: 50 ng/well (0.5 (g/ml; 100 (l/well) in IP;
# uPAR solution: 3 ng/well (30 ng/ml; 100 (l/well) in PBS-buffer (without Mg^2+ and Ca^2+);
# blocking solution: 1% skimmed milk powder in washing buffer (dissolved at 37° C.);
# uPA solution: 0.25 ng/well (5 ng/ml; 50 (l/well) in IP.
# Detect ion solutions (per microtiterplate):
# (1) 6 ml (100 mM Tris-Cl pH 7.2+0.15% Tween 80)+1.5 ml (10 (g) Plasminogen in aqua bidest;
# (2) 6 ml (100 mM Tris-Cl pH 7.2+0.15% Tween 80)+1.5 ml (7.5 mg) chromozyme PL in aqua bidest.
# The detection solution must be continuously stirred. Testing substances: the testing substances are dissolved in DMSO. They are used in the test system with a highest concentration of 100 (g/ml. The solutions are prepared using PBS.
# Three controls are performed:
# a) positive control: using 2% DMSO in PBS;
# b) negative control: assay without receptor;
# 1) inhibition (IC95 at 0.25 mg/ml) with dextranesulfate (MW=500.000);
# 2) inhibition (IC90 at 1 (g/ml) with inactivated uPA (175 (g/ml).
# Incubation is done as follows:
# Each well is incubated by 100 (1 of BIO-R4 (c=0.5 (g/ml) for 1 hour at room temperature under shaking. After washing three times with the washing buffer, each well is incubated for 1 hour (37° C.) with 200 (l/well blocking solution. After triple washing each well is incubated for 1 hour at room temperature under shaking with 100 (l/well uPAR (c=30 ng/ml), then the wells are washed again three times with the washing buffer. The testing substance solution and the control solution, respectively, are added (50 (l/well) and are incubated for 30 minutes at room temperature under shaking. An additional 50 (l of uPA solution (c=2.5 ng/ml) are added. After 1 hour at room temperature a triple washing is performed.
# For detection, the following procedure is used:
# Incubation with 50 (l each of detection solution (1) and (2) at room temperature. After 20 minutes a yellow colour will be visible (the positive control reads an extinction of 1 after 45-60 minutes). The detection is performed at 405 nm (reference is 490 nm) using a Dynatech MR 7000 ELISA reader. To obtain the percentage of inhibition the following formula is used (E stands for extinction): [formula]
# uPAR, sequence (Q03405 23-305 limits assumed): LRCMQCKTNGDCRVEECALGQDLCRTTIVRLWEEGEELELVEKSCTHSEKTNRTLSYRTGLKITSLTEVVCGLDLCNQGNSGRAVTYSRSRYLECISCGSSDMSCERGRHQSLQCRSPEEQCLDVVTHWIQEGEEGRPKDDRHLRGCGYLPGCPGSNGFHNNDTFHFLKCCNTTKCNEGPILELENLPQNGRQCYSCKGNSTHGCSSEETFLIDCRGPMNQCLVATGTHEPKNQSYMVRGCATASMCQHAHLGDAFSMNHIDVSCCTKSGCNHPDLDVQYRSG
row,Compound,IC50
1,CC(C)=C1Oc2cccc(OCCCN3CCC(NC(=O)c4ccc(Cl)c(S(N)(=O)=O)c4)CC3)c2C1=O [4-(3-(4-(3-aminosulfonyl-4-chlorobenzamido)piperidin-1yl)propoxy)-2-isopropylidenecumaran-3-one],91.2 nM
2,"CC(C)=C1Oc2cccc(OCCCCN3CCC(NC(=O)c4ccc(Cl)c(Cl)c4)CC3)c2C1=O [4-(4-(4-(3,4-dichlorobenzamido)piperidin-1-yl)butoxy)-2-isopropylidenecumaran-3-one]",> 19.3 nM
3,CC(C)=C1Oc2cccc(OCCOCCN3CCC(NC(=O)c4ccc(F)cc4)CC3)c2C1=O [4-[(2-(2-(4-(4-fluorobenzamido)piperidin-1-yl)ethyl)oxy)ethyloxy]-2-isopropylidenecumaran-3-one],104 nM
4,"CC(C)=C1Oc2cccc(OC/C=C/CN3CCC(NC(=O)c4ccc(Cl)c(Cl)c4)CC3)c2C1=O [(E)-4-(4-(4-(3,4-dichlorobenzamido)piperidin-1-yl)-2-butenoxy)-2-isopropylidenecumaran-3-one]",> 19.4 nM
5,"CC(C)=C1Oc2cccc(OC/C=C\CN3CCC(NC(=O)c4ccc(Cl)c(Cl)c4)CC3)c2C1=O [(Z)-4-(4-(4-(3,4-dichlorobenzamido)piperidin-1-yl)-2-butenoxy)-2-isopropylidenecumaran-3-one]",> 19.4 nM
